For 33 compounds, IC50 results are on record in patent publication US9694016B2 (Novartis AG, priority 2013, dated 2017).

For the first test, the target named is b-Raf (V600E) (Homo sapiens (Human), UniProt P15056, V600E). The following applies: read-out: b-Raf IC-50.
b-Raf (V600E), sequence (P15056 whole entry V600E): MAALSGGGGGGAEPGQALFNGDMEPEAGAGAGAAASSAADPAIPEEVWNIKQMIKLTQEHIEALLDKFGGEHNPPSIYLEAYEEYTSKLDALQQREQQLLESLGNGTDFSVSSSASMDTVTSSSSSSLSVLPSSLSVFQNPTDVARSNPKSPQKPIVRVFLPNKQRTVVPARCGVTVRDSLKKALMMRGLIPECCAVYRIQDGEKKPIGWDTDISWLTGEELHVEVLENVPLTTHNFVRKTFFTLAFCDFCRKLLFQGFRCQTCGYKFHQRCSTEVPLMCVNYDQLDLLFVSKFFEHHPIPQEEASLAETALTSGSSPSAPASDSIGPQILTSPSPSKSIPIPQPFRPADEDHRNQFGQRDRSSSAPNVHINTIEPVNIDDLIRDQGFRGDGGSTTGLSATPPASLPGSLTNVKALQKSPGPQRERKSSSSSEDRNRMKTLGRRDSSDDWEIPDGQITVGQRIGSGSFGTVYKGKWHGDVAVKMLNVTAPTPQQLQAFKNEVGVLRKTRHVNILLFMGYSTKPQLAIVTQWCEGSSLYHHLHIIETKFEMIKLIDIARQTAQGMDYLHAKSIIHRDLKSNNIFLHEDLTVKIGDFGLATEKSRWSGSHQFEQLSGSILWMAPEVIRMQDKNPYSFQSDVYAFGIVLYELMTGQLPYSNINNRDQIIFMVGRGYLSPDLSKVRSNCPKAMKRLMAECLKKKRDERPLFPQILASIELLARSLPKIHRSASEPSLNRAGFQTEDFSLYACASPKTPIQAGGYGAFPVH
With `Cc1ccc(NC(=O)c2cc(CN(C)C)cc(C(F)(F)F)c2)cc1-c1cc(N2CCOCC2)c(=O)n(C)c1` [Example 173, 3-((dimethylamino)methyl)-N-(4-methyl-3-(1-methyl-5-morpholino-6-oxo-1,6-dihydropyridin-3-yl)phenyl)-5-(trifluoromethyl)benzamide], the IC50 was determined as 9.2 nM.

Staying with this test, now noted: read-out: b-Raf IC-50; AlphaScreen, 60 min pre-incubation, 3 hours reaction.
For the compound `Cc1ncc(NC(=O)c2ccnc(C(C)(C)C#N)c2)cc1-c1cncc(N2CCOCC2)n1` [Example 532, 2-(2-cyanopropan-2-yl)-N-(6-methyl-5-(6-morpholinopyrazin-2-yl)pyridin-3-yl)isonicotinamide], the IC50 was 7.7 nM. Take `CCNc1nc(-c2cc(NC(=O)c3cccc(C(C)(F)F)c3)ccc2C)cc(N2CCOCC2)n1` [Example 701, 3-(1,1-difluoroethyl)-N-(3-(2-(ethylamino)-6-morpholinopyrimidin-4-yl)-4-methylphenyl)benzamide]: the IC50 was 1.3 nM. With `COc1nnc(-c2cc(NC(=O)c3ccnc(C(F)(F)F)c3)cnc2C)cc1N1CCOCC1` [Example 605, N-(5-(6-methoxy-5-morpholinopyridazin-3-yl)-6-methylpyridin-3-yl)-2-(trifluoromethyl)isonicotinamide], the IC50 turned out to be 2.7 nM.

Take `CCOc1nnc(-c2cc(NC(=O)c3ccnc(C(C)(C)O)c3)ccc2C)cc1N1CCOCC1` [Example 569, N-(3-(6-ethoxy-5-morpholinopyridazin-3-yl)-4-methylphenyl)-2-(2-hydroxypropan-2-yl)isonicotinamide]: the IC50 turned out to be 2.8 nM. The same measure, in the same setting: in the case of `Cc1ccc(NC(=O)c2ccnc(C(C)(C)F)c2)cc1-c1cc(C2CCOCC2)c(=O)n(C)n1` [Example 676, 2-(2-fluoropropan-2-yl)-N-(4-methyl-3-(1-methyl-6-oxo-5-(tetrahydro-2H-pyran-4-yl)-1,6-dihydropyridazin-3-yl)phenyl)isonicotinamide] it was 2.4 nM; in that of `Cc1ncc(NC(=O)c2ccnc(C(C)(C)C#N)c2)cc1-c1cc(N2CCOCC2)c(OC2CCOCC2)nn1` [Example 633, 2-(2-cyanopropan-2-yl)-N-(6-methyl-5-(5-morpholino-6-((tetrahydro-2H-pyran-4-yl)oxy)pyridazin-3-yl)pyridin-3-yl)isonicotinamide], 7.2 nM; in that of `Cc1ncc(NC(=O)c2cccc(C(F)(F)F)c2)cc1-c1cc(N2CCOCC2)nc(OC2CNC2)n1` [Example 776, N-(5-(2-(azetidin-3-yloxy)-6-morpholinopyrimidin-4-yl)-6-methylpyridin-3-yl)-3-(trifluoromethyl)benzamide], 25000 nM. `CCNCc1ccc(C(=O)Nc2ccc(C)c(-c3cc(N4CCOCC4)c(OCC)nn3)c2)cc1C(F)(F)F` [Example 575, N-(3-(6-ethoxy-5-morpholinopyridazin-3-yl)-4-methylphenyl)-4-((ethylamino)methyl)-3-(trifluoromethyl)benzamide]: the IC50 worked out at 2.9 nM. As to `CCOc1nnc(-c2cc(NC(=O)c3cccc(S(C)(=O)=O)c3)cnc2C)cc1N1CCOCC1` [Example 618, N-(5-(6-ethoxy-5-morpholinopyridazin-3-yl)-6-methylpyridin-3-yl)-3-(methylsulfonyl)benzamide], the IC50 was found to be 5 nM.

Staying with this test, now noted: read-out: b-Raf IC-50; AlphaScreen, 60 min pre-incubation, reaction 3 hours at room temperature.
With `CC(F)(F)c1cc(C(=O)Nc2c[nH]c(=O)c(-c3ccnc(N4CCOCC4)c3)c2)ccn1` [Example 1171, 2-(1,1-difluoroethyl)-N-(2′-morpholino-2-oxo-1,2-dihydro-[3,4′-bipyridin]-5-yl)isonicotinamide], the IC50 was 25000 nM.

For the compound `COc1nnc(-c2cc(C(=O)Nc3ccnc(C(F)(F)F)c3)ccc2C)cc1N1CCOCC1` [Example 1017, 3-(6-methoxy-5-morpholinopyridazin-3-yl)-4-methyl-N-(2-(trifluoromethyl)pyridin-4-yl)benzamide], the IC50 was 0.98 nM. The same measure, in the same setting: in the case of `Cc1ncc(NC(=O)c2ccnc(C(F)(F)F)c2)cc1-c1cc(NCCO)nc(N2CCOCC2)c1` [Example 1040, N-(2′-((2-hydroxyethyl)amino)-2-methyl-6′-morpholino-[3,4′-bipyridin]-5-yl)-2-(trifluoromethyl)isonicotinamide] it was 4.35 nM; in that of `Cc1ccc(NC(=O)c2ccnc(C(F)(F)F)c2)cc1-c1c(F)c(NCCO)nc(N2CCOCC2)c1F` [Example 1014, N-(3-(3,5-difluoro-2-((2-hydroxyethyl)amino)-6-morpholinopyridin-4-yl)-4-methylphenyl)-2-(trifluoromethyl)isonicotinamide], 12.8 nM; in that of `CCn1cc(C(=O)Nc2cnc(C)c(-c3cc(N4CCOCC4)nc(N4CCOCC4)c3)c2)cc(C(F)(F)F)c1=O` [Example 1125, 1-ethyl-N-(2-methyl-2′,6′-dimorpholino-[3,4′-bipyridin]-5-yl)-6-oxo-5-(trifluoromethyl)-1,6-dihydropyridine-3-carboxamide], 10 nM.

As for `Cc1ncc(NC(=O)c2ccnc(C(C)C)c2)cc1-c1cc(N2CCOCC2)c2nccn2c1` [Example 882, 2-isopropyl-N-(6-methyl-5-(8-morpholinoimidazo[1,2-a]pyridin-6-yl)pyridin-3-yl)isonicotinamide], the IC50 was found to be 8.1 nM.

Regarding `Cc1ccc(NC(=O)c2cnnc(C(C)(C)C#N)c2)cc1-c1cc(OC2CCOCC2)nc(N2CCOCC2)c1` [Example 1153, 6-(2-cyanopropan-2-yl)-N-(4-methyl-3-(2-morpholino-6-((tetrahydro-2H-pyran-4-yl)oxy)pyridin-4-yl)phenyl)pyridazine-4-carboxamide], the IC50 came out at 2.15 nM.

Turning to `Cc1ncc(NC(=O)c2cncc(C(F)(F)F)c2)cc1-c1cnc(OCC(F)F)c(N2CCOCC2)c1` [Example 935, N-(6′-(2,2-difluoroethoxy)-2-methyl-5′-morpholino-[3,3′-bipyridin]-5-yl)-5-(trifluoromethyl)nicotinamide], the IC50 is 2.04 nM.

As to `Cc1ccc(NC(=O)c2ccnc(C(C)(C)O)c2)cc1-c1cc(NCCO)nc(N2CCOCC2)c1F` [Example 1010, N-(3-(3-fluoro-6-((2-hydroxyethyl)amino)-2-morpholinopyridin-4-yl)-4-methylphenyl)-2-(2-hydroxypropan-2-yl)isonicotinamide], the IC50 worked out at 28.9 nM.

Regarding `CCC(F)(F)c1cc(C(=O)Nc2cnc(C)c(-c3cc(C4COCCO4)nc(N4CCOCC4)c3)c2)ccn1` (stereo not drawn) [Example 1168, N-(2′-(1,4-dioxan-2-yl)-2-methyl-6′-morpholino-[3,4′-bipyridin]-5-yl)-2-(1,1-difluoropropyl)isonicotinamide], the IC50 came out at 4.56 nM.

As to `Cc1ncc(NC(=O)c2ccnc(C(F)(F)F)c2)cc1-c1cc(N2CCOCC2)nc(N2CCOCC2)c1` [Example 1120, N-(2-methyl-2′,6′-dimorpholino-[3,4′-bipyridin]-5-yl)-2-(trifluoromethyl)isonicotinamide], the IC50 amounted to 1.63 nM. On to `Cc1ccc(NC(=O)c2cccc(C(F)(F)F)c2)cc1-c1cc(NCC(C)(C)O)nc(N2CCOCC2)c1` [Example 1062, N-(3-(2-((2-hydroxy-2-methylpropyl)amino)-6-morpholinopyridin-4-yl)-4-methylphenyl)-3-(trifluoromethyl)benzamide], for which the IC50 is 0.98 nM. Regarding `COc1nnc(-c2cc(C(=O)Nc3ccnc(C(F)(F)F)c3)ccc2C)cc1N1CCOCC1` [Example 1018], the IC50 is 1.76 nM. On to `CCOc1ccc(-c2cc(NC(=O)c3ccnc(C(C)(F)F)c3)cnc2C)nc1N1CCOCC1` [Example 1028, 2-(1,1-difluoroethyl)-N-(5-ethoxy-2′-methyl-6-morpholino-[2,3′-bipyridin]-5′-yl)isonicotinamide], for which the IC50 was 4.11 nM.

Turning to `Cc1ncc(NC(=O)c2cccc(C(F)(F)F)c2)cc1-c1cnc(OCC2COCCO2)c(N2CCOCC2)c1` (stereo not drawn) [Example 992], the IC50 is 1.63 nM.

Take `Cc1ccc(NC(=O)c2ccnc(C3CC3)c2)cc1-c1cc(N2CCOCC2)nc(N2CC(O)C2)c1` [Example 1068, 2-cyclopropyl-N-(3-(2-(3-hydroxyazetidin-1-yl)-6-morpholinopyridin-4-yl)-4-methylphenyl)isonicotinamide]: the IC50 was 0.72 nM. For `Cc1ccc(NC(=O)c2ccnc(C(F)F)c2)cc1-c1cc(NCCO)nc(N2CCOCC2)c1F` [Example 1009, 2-(difluoromethyl)-N-(3-(3-fluoro-6-((2-hydroxyethyl)amino)-2-morpholinopyridin-4-yl)-4-methylphenyl)isonicotinamide], the IC50 came out at 14.8 nM.

Still in this test, the particulars now being: read-out: b-Raf IC-50; Table 2; AlphaScreen, 3 hours reaction.
As for `Cc1ncc(NC(=O)c2cccc(C(F)(F)F)c2)cc1-c1cnc(OC2CN(C)C2)c(N2CCOCC2)c1` [Example 321, N-(2-methyl-6′-((1-methylazetidin-3-yl)oxy)-5′-morpholino-[3,3′-bipyridin]-5-yl)-3-(trifluoromethyl)benzamide], the IC50 stood at 24.8 nM. Turning to `Cc1ccc(C(=O)Nc2cccc(C(F)(F)F)c2)cc1-c1cc(N2CCS(=O)(=O)CC2)nc(N2CCOCC2)n1` [Example 7, 3-(6-(1,1-dioxidothiomorpholino)-2-morpholinopyrimidin-4-yl)-4-methyl-N-(3-(trifluoromethyl)phenyl)benzamide], the IC50 was determined as 2.5 nM. As to `Cc1ncc(NC(=O)c2ccnc(C(C)(C)F)c2)cc1-c1cnc(F)c(N2CCOCC2)c1` [Example 298, N-(6′-fluoro-2-methyl-5′-morpholino-[3,3′-bipyridin]-5-yl)-2-(2-fluoropropan-2-yl)isonicotinamide], the IC50 was found to be 3.9 nM. In the case of `Cc1ccc(NC(=O)c2ccnc(C(C)(F)F)c2)cc1-c1cc(N2CCOCC2)c(=O)n(CCC#N)c1` [Example 334, N-(3-(1-(2-cyanoethyl)-5-morpholino-6-oxo-1,6-dihydropyridin-3-yl)-4-methylphenyl)-2-(1,1-difluoroethyl)isonicotinamide], the IC50 was 2.3 nM. The same measure, in the same setting: in the case of `CCOc1ncc(-c2cc(NC(=O)c3ccnc(C(F)F)c3)ccc2C)cc1N1CCOCC1` [Example 237, 2-(difluoromethyl)-N-(3-(6-ethoxy-5-morpholinopyridin-3-yl)-4-methylphenyl)isonicotinamide] it was 0.4 nM; in that of `COc1ncc(-c2cc(NC(=O)c3ccnc(C4(C#N)CC4)c3)cnc2C)cc1N1CCOCC1` [Example 283, 2-(1-cyanocyclopropyl)-N-(6′-methoxy-2-methyl-5-morpholino-[3,3′-bipyridin]-5-yl)isonicotinamide], 6 nM.
